Blank lines part the entries; values can stand above or below the molecule they belong to.
Target: hepatitis C virus RNA dependant polymerase (NS5B) (Hepatitis C virus genotype 1b, UniProt P26663)
Assay: Inhibition of NS5B RNA dependent RNA polymerase activity
Format: biochemical
Protocol: A suitable assay is described in the examples.
Inhibition of NS5B RNA Dependent RNA Polymerase Activity
The compounds of the invention were tested for inhibitory activity against the hepatitis C virus RNA dependant polymerase (NS5B), according to protocol described in WO 03/010141

Chain of hepatitis C virus RNA dependant polymerase (NS5B) (P26663 2420-3010): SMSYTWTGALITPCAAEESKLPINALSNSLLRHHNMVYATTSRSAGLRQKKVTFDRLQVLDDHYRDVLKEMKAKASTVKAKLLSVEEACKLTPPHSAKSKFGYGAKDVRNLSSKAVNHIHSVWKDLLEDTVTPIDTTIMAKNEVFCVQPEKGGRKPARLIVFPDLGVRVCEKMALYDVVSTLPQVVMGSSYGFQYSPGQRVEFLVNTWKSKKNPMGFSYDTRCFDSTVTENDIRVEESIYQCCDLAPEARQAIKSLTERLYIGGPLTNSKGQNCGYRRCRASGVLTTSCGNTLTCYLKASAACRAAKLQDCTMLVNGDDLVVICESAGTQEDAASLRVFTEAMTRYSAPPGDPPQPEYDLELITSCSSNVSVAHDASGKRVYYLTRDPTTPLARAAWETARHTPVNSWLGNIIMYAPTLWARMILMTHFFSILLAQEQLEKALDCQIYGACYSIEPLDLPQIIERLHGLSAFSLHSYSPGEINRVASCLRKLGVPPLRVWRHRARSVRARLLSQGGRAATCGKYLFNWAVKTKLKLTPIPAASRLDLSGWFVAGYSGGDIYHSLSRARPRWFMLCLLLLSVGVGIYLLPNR

IC50 (Table 1, HCV NS5B polymerase): < 200 nM
SMILES: O=C(O)c1ccc2c(C3CCCCC3)c(-c3ccccc3)n(CC(=O)N3CCOCC3)c2c1 [Example 1023]

IC50 (Table 2, HCV NS5B polymerase): < 200 nM
SMILES: CC(C)(C)c1ccc(S(=O)(=O)NC(=O)c2ccc3c(C4CCCCC4)c(-c4ccoc4)n(CC(=O)N4CCOCC4)c3c2)cc1 [Example 2025]

IC50 (Table 1, HCV NS5B polymerase): < 200 nM
SMILES: O=C(O)c1ccc2c(C3CCCCC3)c(-c3ccoc3)n(CC(=O)N3CCC(N4CCCCC4)CC3)c2c1 [Example 1010]

IC50 (Table 7, class ranges): 1000 to 10000 nM
SMILES: O=C(NCC1CCCO1)c1ccc2c(c1)c(C1CCCCC1)c(-c1ccoc1)n2CC(=O)N1CCC(N2CCCC2)CC1 (stereo not drawn) [Example 7016]

IC50 (Table 2, HCV NS5B polymerase): < 200 nM
SMILES: O=C(NS(=O)(=O)C1CC1)c1ccc2c(C3CCCCC3)c(-c3ccoc3)n(CC(=O)N3CCOCC3)c2c1 [Example 2026]

IC50 (Table 2, HCV NS5B polymerase): < 200 nM
SMILES: O=C(NS(=O)(=O)CC(F)(F)F)c1ccc2c(C3CCCCC3)c(-c3ccoc3)n(CC(=O)N3CCOCC3)c2c1 [Example 2027]

IC50 (Table 1, HCV NS5B polymerase): 200 to 1000 nM
SMILES: O=C(O)c1ccc2c(C3CCCCC3)c(-c3ccccn3)n(CC(=O)N3CCCC3)c2c1 [Example 1084]

IC50 (Table 4, class ranges): 200 to 1000 nM
SMILES: COc1cc(CNC(=O)c2ccc3c(C4CCCCC4)c(-c4ccoc4)n(CC(=O)N4CCOCC4)c3c2)ccc1O [Example 4064]

IC50 (Table 4, class ranges): 200 to 1000 nM
SMILES: COC(=O)C1(NC(=O)c2ccc3c(C4CCCCC4)c(-c4ccoc4)n(CC(=O)N4CCOCC4)c3c2)CCCCC1 [Example 4076]

IC50 (Table 7, class ranges): 1000 to 10000 nM
SMILES: CN(C)C(=O)c1ccc2c(c1)c(C1CCCCC1)c(-c1ccoc1)n2CC(=O)N1CCC(N2CCCC2)CC1 [Example 7033]

IC50 (Table 5, HCV NS5B polymerase): 200 to 1000 nM
SMILES: O=C(O)c1ccc2c(C3CCCCC3)c(-c3ccoc3)n(CC(=S)N3CCOCC3)c2c1 [Example 5001]

IC50 (Table 2, HCV NS5B polymerase): < 200 nM
SMILES: CS(=O)(=O)c1ccccc1S(=O)(=O)NC(=O)c1ccc2c(C3CCCCC3)c(-c3ccoc3)n(CC(=O)N3CCOCC3)c2c1 [Example 2038]

Source: patent US7888363B2, “Viral polymerase inhibitors” (Boehringer Ingelheim International GmbH, priority 2003, dated 2011)
